Source: ChEMBL document CHEMBL4376813, “Design, synthesis and biological evaluation of AT1 receptor blockers derived from 6-substituted aminocarbonyl benzimidazoles” (Eur J Med Chem, 2019)
Activity calls are given as the source filed them. The calls are words filed in the database; no cut-off is given here.

Legend:
Rattus norvegicus [1] = assay: […] activity in spontaneous hypertensive rat assessed as reduction in blood pressure at 5 to 10 mg/kg, po; type: functional, organism-based
[2] = Inhibition of [125I] Ang2 binding to AT1 receptor in Sprague-Dawley rat VSMC after 150 mins by gamma-counter method
Rattus norvegicus [3] = assay: […] activity in spontaneous hypertensive rat at 10 mg/kg, po after 24 hrs; type: functional, organism-based
Rattus norvegicus [4] = assay: […] activity in spontaneous hypertensive rat assessed as maximum reducing response of mean blood pressure at 10 mg/kg, po; type: functional
Rattus norvegicus [5] = assay: […] activity in spontaneous hypertensive rat assessed as reduction in blood pressure at 10 mg/kg, po; type: functional, organism-based

Row | Structure (SMILES) | IC50 [2] | Ki [2] | Activity (Rattus norvegicus [1]) | Activity (Rattus norvegicus [3]) | Activity (Rattus norvegicus [4]) | Activity (Rattus norvegicus [5])
1 | CCCCc1nc2c(C)cc(C(=O)NCCc3ccccc3)cc2n1Cc1ccc2c(ccn2-c2ccccc2C(=O)O)c1 | 3.7 nM | 2.7 nM | Active | – | – | –
2 | CCCCc1nc(Cl)c(CO)n1Cc1ccc(-c2ccccc2-c2nnn[nH]2)cc1 [LOSARTAN] | 14.6 nM | 10.5 nM | – | – | – | Active
3 | CCc1nc2c(C)cc(C(=O)NCCc3ccccc3)cc2n1Cc1ccc2c(ccn2-c2ccccc2C(=O)O)c1 | 12.1 nM | 8.8 nM | – | – | – | –
4 | CCCCc1nc2c(C)cc(C(=O)NCCc3ccccc3)cc2n1Cc1cccc2c1ccn2-c1ccccc1C(=O)O | 8.5 nM | 6.2 nM | – | – | – | –

More lines, in order of falling IC50 [2], values ahead:

Row | IC50 [2] | Ki [2] | Structure (SMILES) | Activity (Rattus norvegicus [1]) | Activity (Rattus norvegicus [3]) | Activity (Rattus norvegicus [4]) | Activity (Rattus norvegicus [5])
5 | 4.8 nM | 3.5 nM | CCc1nc2c(C)cc(C(=O)NCCc3ccccc3)cc2n1Cc1cccc2c1ccn2-c1ccccc1C(=O)O | – | – | – | –
6 | 2.6 nM | 1.9 nM | CCCc1nc2c(C)cc(C(=O)NCCc3ccccc3)cc2n1Cc1ccc2c(ccn2-c2ccccc2C(=O)O)c1 | Active | Active | 57.9 mmHg | –
7 | 2.3 nM | 1.7 nM | CCCc1nc2c(C)cc(C(=O)NCCc3ccccc3)cc2n1Cc1cccc2c1ccn2-c1ccccc1C(=O)O | Active | Active | 57.6 mmHg | –
